# Source: ChEMBL document CHEMBL1156867, “Improved synthesis of a fluorogenic ceramidase substrate” (Bioorg Med Chem, 2010)
# The source made the active and inactive calls. No cut-off for these calls is given here.
# Tests used:
# SK-OV-3 [1] = experiment: Activity of ceramidase in human SKOV3 cells assessed as formation of 7-(((3R,4S)-4-amino-3,5- dihydroxypentyl)oxy)-2H-chromen-2-one at 16 uM after 24 hrs at 37 degC by HPLC; type: cell-based
# SK-OV-3 [2] = experiment: Activity of ceramidase in human SKOV3 cells assessed as formation of 7-(((3R,4S)-4-amino-3,5- dihydroxypentyl)oxy)-2H-chromen-2-one at 16 uM after 1 to 24 hrs at 37 degC by umbelliferone formation based fluorescence intensity assay; type: cell-based; settings: TDE = time-dependent effect
# SK-OV-3 [3] = experiment: Activity of ceramidase in human SKOV3 cells assessed as formation of 7-(((3R,4S)-4-amino-3,5- dihydroxypentyl)oxy)-2H-chromen-2-one at 16 uM after 1 to 24 hrs at 37 degC by HPLC; type: cell-based; settings: TDE = time-dependent effect
# [4] = Inhibition of pig liver ceramidase assessed as hydrolysis of N-((2S,3R)-1,3-dihydroxy-5-((2-oxo-2H-chromen-7-yl)oxy)pentan-2-yl)palmitamide; parameters: species or system Sus scrofa
# [5] = Inhibition of ceramidase in human SKOV3 cells assessed as hydrolysis of N-((2S,3R)-1,3-dihydroxy-5-((2-oxo-2H-chromen-7-yl)oxy)pentan-2-yl)palmitamide at 16 uM after 24 hrs at 37 degC by HPLC; type: cell-based; settings: sk-ov-3
# [6] = Inhibition of ceramidase in human SKOV3 cells assessed as hydrolysis of N-((2S,3R)-1,3-dihydroxy-5-((2-oxo-2H-chromen-7-yl)oxy)pentan-2-yl)palmitamide at 16 uM after 24 hrs at 37 degC by umbelliferone formation based fluorescence intensity assay; type: cell-based, SK-OV-3
# [7] = Inhibition of rat liver ceramidase assessed as hydrolysis of N-((2S,3R)-1,3-dihydroxy-5-((2-oxo-2H-chromen-7-yl)oxy)pentan-2-yl)palmitamide
IC50 [4] [µM],IC50 [5],IC50 ([5]; read-out: IC50) [µM],"IC50 ([6]; Homo sapiens, SK-OV-3, 24 h, read-out: IC50) [µM]",IC50 ([6]; sk-ov-3),IC50 [7] [µM],Structure (SMILES),Activity (SK-OV-3 [1]),Activity (SK-OV-3 [2]),Activity (SK-OV-3 [3])
–,–,–,–,–,–,CCCCCCCCCCCCCCCC(=O)N[C@@H](CO)[C@H](O)CCOc1ccc2ccc(=O)oc2c1,Active,tde,tde
76,Dose-dependent effect,24,28,Dose-dependent effect,71,CCCCCCCC/C=C\CCCCCCCC(=O)NCCO [OLEOYLETHANOLAMIDE],–,–,–
